Compound in assay [1]: NC(=O)CCCCC1CCSS1 [lipoamide]
The experiment in a line: thermal stability z-score vs DMSO; higher = more thermally stabilized by treatment. The note with it: HeLa, lipoamide concentration 100 µM. As to the method: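 Cellular thermal proteome profiling in HeLa cells. Cells were treated with 100 µM lipoamide for 1 h, with or without 1 mM arsenate for a further 1 h, then heated to ten temperatures (37-66.3 °C), and soluble protein was quantified by TMT mass spectrometry relative to 0.1% DMSO controls. The thermal stability score (sum of log2 fold changes minus the abundance score) was transformed to a z-score; mean of n = 3 experiments.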

Compound in assay [2]: O=[As]([O-])(O)O.[K+] [potassium arsenate]
The description is as above. The conditions noted are these: HeLa; arsenate concentration 1 mM. The procedure: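 Cellular thermal proteome profiling in HeLa cells treated with 1 mM arsenate for 1 h (DMSO pretreatment), heated to ten temperatures (37-66.3 °C). Soluble protein was quantified by TMT mass spectrometry relative to DMSO controls; the thermal stability score was transformed to a z-score; mean of n = 3 experiments.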

Where [3] appears, read: arsenate co-treatment: 1 mM arsenate 1 h.

This note sets out measurements from the supplement of paper PMC12463676, “Small-molecule dissolution of stress granules by redox modulation benefits ALS models” (Nature Chemical Biology, 2025).
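Also: each temperature applied for 3 min, abundance score taken as mean log2 fold change at the two lowest temperatures, z-score obtained by mean subtraction and division by SD.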

Chain of UniProt Q6UWJ1 (Q6UWJ1 whole entry): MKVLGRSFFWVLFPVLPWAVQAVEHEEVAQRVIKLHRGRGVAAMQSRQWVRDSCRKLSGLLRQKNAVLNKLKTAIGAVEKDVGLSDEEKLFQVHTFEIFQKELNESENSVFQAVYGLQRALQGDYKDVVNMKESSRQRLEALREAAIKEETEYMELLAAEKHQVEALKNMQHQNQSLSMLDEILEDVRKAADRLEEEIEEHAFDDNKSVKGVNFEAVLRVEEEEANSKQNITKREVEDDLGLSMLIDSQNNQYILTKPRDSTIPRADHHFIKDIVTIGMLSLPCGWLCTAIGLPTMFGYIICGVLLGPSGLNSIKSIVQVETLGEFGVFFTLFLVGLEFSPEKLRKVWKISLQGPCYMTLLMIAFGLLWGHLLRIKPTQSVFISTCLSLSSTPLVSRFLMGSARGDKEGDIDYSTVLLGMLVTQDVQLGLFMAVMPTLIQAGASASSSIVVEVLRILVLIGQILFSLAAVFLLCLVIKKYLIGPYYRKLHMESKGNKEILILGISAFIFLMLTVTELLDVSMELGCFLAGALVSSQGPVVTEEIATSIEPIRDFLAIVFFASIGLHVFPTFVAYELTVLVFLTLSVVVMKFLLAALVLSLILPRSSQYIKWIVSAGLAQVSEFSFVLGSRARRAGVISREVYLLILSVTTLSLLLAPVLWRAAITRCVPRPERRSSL
Chain of UniProt P51608 (P51608 whole entry): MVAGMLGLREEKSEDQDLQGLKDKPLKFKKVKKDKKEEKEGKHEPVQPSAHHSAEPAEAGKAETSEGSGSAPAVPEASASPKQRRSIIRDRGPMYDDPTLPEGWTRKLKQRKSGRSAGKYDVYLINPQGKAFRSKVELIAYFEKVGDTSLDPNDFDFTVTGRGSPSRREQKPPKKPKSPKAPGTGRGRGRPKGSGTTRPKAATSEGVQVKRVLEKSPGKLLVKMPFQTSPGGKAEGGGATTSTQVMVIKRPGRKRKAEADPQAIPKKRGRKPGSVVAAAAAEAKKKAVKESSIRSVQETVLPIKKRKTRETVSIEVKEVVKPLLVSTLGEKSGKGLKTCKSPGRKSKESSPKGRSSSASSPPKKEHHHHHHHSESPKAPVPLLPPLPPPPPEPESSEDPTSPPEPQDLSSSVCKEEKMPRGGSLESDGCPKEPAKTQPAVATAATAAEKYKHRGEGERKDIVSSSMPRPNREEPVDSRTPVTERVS
Chain of UniProt Q9H5X1 (Q9H5X1 whole entry): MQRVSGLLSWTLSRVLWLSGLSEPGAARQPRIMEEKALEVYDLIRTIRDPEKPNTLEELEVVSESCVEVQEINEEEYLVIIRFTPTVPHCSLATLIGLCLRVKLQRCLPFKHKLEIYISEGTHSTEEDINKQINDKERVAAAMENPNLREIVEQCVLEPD
Chain of UniProt O15085 (O15085 whole entry): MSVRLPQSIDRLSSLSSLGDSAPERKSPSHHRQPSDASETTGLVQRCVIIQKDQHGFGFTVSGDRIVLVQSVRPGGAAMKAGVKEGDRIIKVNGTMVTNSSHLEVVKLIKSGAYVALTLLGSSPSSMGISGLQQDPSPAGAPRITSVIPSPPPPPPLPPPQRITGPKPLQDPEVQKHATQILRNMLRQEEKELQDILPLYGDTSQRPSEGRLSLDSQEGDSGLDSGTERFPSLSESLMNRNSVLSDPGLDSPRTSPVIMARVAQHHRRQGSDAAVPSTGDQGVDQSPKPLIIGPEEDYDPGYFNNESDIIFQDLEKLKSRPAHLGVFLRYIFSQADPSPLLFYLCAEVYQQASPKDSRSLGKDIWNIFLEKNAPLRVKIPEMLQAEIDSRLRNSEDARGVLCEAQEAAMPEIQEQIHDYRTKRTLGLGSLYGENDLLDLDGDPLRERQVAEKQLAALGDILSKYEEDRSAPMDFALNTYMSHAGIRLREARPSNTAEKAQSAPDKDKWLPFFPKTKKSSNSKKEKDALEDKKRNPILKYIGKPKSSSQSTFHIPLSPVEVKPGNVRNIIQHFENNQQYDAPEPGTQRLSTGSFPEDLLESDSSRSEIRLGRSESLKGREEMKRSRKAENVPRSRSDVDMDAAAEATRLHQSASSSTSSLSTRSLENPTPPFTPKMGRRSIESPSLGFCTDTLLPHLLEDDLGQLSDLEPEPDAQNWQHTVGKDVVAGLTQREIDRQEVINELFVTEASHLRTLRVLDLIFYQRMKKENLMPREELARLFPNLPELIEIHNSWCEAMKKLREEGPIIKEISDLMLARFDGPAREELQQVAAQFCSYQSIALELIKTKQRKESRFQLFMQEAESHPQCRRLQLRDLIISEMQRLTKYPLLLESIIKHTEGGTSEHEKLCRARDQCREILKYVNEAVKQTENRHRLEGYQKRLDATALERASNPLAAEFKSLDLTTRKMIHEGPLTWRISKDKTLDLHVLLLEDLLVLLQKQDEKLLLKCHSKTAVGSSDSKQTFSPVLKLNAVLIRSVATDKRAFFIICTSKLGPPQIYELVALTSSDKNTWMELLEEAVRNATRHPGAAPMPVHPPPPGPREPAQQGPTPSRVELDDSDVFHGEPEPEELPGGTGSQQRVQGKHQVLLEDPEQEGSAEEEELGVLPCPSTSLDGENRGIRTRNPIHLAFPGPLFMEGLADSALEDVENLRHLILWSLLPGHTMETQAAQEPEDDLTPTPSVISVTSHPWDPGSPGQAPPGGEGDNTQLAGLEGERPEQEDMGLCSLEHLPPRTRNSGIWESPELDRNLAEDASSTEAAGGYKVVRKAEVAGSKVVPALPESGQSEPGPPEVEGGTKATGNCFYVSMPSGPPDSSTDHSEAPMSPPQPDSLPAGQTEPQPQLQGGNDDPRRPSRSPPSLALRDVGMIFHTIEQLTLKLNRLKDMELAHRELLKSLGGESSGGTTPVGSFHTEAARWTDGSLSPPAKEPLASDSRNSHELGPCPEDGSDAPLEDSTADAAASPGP
Chain of UniProt Q15058 (Q15058 whole entry): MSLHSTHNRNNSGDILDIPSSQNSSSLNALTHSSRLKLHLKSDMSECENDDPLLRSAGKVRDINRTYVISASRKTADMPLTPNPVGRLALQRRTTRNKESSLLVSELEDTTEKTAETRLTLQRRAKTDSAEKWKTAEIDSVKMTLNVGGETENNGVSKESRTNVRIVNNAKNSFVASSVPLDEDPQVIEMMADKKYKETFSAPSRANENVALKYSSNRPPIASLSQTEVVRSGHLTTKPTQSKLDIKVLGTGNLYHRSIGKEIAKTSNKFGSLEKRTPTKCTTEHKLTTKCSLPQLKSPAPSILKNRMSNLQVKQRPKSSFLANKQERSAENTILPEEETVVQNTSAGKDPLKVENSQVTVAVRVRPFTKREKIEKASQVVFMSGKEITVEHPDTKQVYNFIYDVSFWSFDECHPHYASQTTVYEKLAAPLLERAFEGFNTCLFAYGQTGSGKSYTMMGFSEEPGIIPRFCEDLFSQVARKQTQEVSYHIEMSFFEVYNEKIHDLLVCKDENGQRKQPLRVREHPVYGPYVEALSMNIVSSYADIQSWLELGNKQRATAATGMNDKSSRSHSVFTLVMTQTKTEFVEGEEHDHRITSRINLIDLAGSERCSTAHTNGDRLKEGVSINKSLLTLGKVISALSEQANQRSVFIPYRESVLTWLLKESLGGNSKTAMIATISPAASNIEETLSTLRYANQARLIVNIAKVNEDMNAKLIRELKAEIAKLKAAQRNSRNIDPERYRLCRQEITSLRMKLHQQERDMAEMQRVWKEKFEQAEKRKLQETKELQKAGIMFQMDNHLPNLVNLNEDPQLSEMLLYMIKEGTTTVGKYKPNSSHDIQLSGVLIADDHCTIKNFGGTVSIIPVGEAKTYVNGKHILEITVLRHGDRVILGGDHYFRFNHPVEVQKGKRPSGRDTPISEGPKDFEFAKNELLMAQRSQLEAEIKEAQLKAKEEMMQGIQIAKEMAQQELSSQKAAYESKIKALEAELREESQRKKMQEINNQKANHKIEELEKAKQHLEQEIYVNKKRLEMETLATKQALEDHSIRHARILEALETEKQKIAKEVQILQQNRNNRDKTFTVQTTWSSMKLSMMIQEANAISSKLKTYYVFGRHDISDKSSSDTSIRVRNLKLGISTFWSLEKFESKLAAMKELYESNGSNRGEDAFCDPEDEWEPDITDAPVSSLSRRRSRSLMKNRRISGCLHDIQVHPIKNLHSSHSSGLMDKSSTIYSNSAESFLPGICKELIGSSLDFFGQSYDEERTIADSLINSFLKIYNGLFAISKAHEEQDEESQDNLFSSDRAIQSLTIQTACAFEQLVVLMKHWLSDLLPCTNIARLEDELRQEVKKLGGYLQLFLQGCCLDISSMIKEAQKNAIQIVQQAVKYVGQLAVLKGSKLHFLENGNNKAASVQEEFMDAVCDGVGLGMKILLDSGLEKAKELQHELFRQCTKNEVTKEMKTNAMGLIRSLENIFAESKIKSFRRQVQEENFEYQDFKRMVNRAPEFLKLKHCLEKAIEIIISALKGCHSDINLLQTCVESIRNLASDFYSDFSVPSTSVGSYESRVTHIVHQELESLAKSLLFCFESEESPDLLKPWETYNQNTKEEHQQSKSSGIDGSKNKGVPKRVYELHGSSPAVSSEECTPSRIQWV
Chain of UniProt P00374 (P00374 whole entry): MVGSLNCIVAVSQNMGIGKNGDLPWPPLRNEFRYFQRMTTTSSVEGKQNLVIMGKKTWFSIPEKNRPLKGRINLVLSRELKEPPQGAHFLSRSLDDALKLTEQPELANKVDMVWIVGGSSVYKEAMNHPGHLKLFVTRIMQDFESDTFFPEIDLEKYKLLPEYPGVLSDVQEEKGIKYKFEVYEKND
Chain of UniProt Q12982 (Q12982 whole entry): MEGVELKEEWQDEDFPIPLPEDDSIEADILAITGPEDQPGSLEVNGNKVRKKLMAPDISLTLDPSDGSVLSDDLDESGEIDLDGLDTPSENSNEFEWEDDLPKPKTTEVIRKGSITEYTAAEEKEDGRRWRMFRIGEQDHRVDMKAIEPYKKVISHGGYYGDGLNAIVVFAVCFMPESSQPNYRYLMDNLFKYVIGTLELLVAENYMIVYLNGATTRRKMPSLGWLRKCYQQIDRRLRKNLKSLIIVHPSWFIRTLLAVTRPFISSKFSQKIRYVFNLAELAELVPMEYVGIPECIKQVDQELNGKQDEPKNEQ

Regarding CPT2 (UniProt P23786), the thermal stability z-score was -0.296 in assay [1] (setting [3]), 0.0116 in assay [1] (arsenate co-treatment: none) and 0.228 in assay [2].
The corresponding values for ARHGEF11 (UniProt O15085) are -0.0428, 0.152 and 0.14.
The corresponding values for BNIP2 (UniProt Q12982) are 1.13, 0.0699 and 0.641.
The corresponding values for HMGN3 (UniProt Q15651) are 1.36, 0.402 and 0.493.
For STX10 (UniProt O60499), the thermal stability z-score in assay [1] (setting [3]) is -0.387; in assay [1] (arsenate co-treatment: none) it was -0.00805; in assay [2], 0.516.
The corresponding values for GTPBP2 (UniProt Q9BX10) are 0.122, 0.0371 and 0.0134.
The matching figures for QSOX2 (UniProt Q6ZRP7): 0.352, 1.15 and 0.165.
The corresponding values for TGS1 (UniProt Q96RS0) are -0.109, -0.175 and 1.17.
With MRPL20 (UniProt Q9BYC9), the thermal stability z-score in assay [1] (setting [3]) is 0.411; in assay [1] (arsenate co-treatment: none) it was 0.239; in assay [2] it was -0.00694.
The corresponding values for APOO (UniProt Q9BUR5) are 0.803, 0.64 and 0.23.
Consider MAP2K1 (UniProt Q02750), for which the thermal stability z-score was -0.382 in assay [1] (setting [3]), -0.187 in assay [1] (arsenate co-treatment: none) and -0.118 in assay [2].
The corresponding values for AARS (UniProt P49588) are -0.195, -0.297 and -1.29.
The matching figures for NUP85 (UniProt Q9BW27): 0.16, 0.113 and 0.613.
The matching figures for CCNK (UniProt O75909): 0.743, -0.222 and -0.771.
As to TMEM115 (UniProt Q12893), the thermal stability z-score in assay [1] (setting [3]) is 0.0848; in assay [1] (arsenate co-treatment: none), 0.637; in assay [2] it was -0.307.
The matching figures for KIF14 (UniProt Q15058): 0.0801, 0.0434 and -0.00998.
Turning to EEF1E1 (UniProt O43324), the figures for the thermal stability z-score in assay [1] (setting [3]), in assay [1] (arsenate co-treatment: none) and in assay [2] were 0.552, 0.194 and 0.997, respectively.
The corresponding values for ZC3H11A (UniProt O75152) are 0.0837, -0.0442 and -0.845.
The corresponding values for BLOC1S3 (UniProt Q6QNY0) are 0.923, 0.625 and 0.0424.
The corresponding values for MECP2 (UniProt P51608) are -0.157, -0.207 and -0.147.
As to TAMM41 (UniProt Q96BW9), the thermal stability z-score is -0.232 in assay [1] (setting [3]), 0.102 in assay [1] (arsenate co-treatment: none) and 0.161 in assay [2].
On to ZCCHC8 (UniProt Q6NZY4), for which the thermal stability z-score in assay [1] (setting [3]) was 0.464; in assay [1] (arsenate co-treatment: none), 0.344; in assay [2] it was -0.318.
Take TGFB1 (UniProt P01137): the values for the thermal stability z-score in assay [1] (setting [3]), in assay [1] (arsenate co-treatment: none) and in assay [2] were -2.9, -3.34 and -0.306, respectively.
The matching figures for EML1 (UniProt O00423): 0.345, 0.15 and -0.156.
The corresponding values for ARMC8 (UniProt Q8IUR7) are -0.0708, -0.238 and -0.668.
The corresponding values for DHFR (UniProt P00374) are -0.995, -0.563 and 0.324.
In the case of MON1B (UniProt Q7L1V2), the thermal stability z-score in assay [1] (setting [3]) was determined as 0.955; in assay [1] (arsenate co-treatment: none), 0.582; in assay [2], 0.685.
The matching figures for DHX15 (UniProt O43143): -0.319, -0.389 and 0.00808.
The corresponding values for EOGT (UniProt Q5NDL2) are -1.18, -0.664 and 0.0751.
The corresponding values for TMCO3 (UniProt Q6UWJ1) are -0.807, -1.31 and 0.2.
For CRYBG3 (UniProt Q68DQ2), the results for the thermal stability z-score in assay [1] (setting [3]), in assay [1] (arsenate co-treatment: none) and in assay [2] were -0.828, 0.00468 and -0.00726, respectively.
The matching figures for TOP3A (UniProt Q13472): -0.152, 0.21 and -0.457.
DYNC2H1 (UniProt Q8NCM8): the thermal stability z-score is -0.15 in assay [1] (setting [3]), -0.28 in assay [1] (arsenate co-treatment: none) and -0.209 in assay [2].
The corresponding values for SF3B1 (UniProt O75533) are 2.46, 0.661 and -0.873.
As for XPO7 (UniProt Q9UIA9), the thermal stability z-score in assay [1] (setting [3]) was -0.0212; in assay [1] (arsenate co-treatment: none), -0.0682; in assay [2], 0.621.
FAM96A (UniProt Q9H5X1): the thermal stability z-score in assay [1] (setting [3]) is -0.0873; in assay [1] (arsenate co-treatment: none) it was -0.652; in assay [2] it was -1.34.
The corresponding values for GTPBP1 (UniProt O00178) are -0.325, -0.107 and 0.493.
E2F3 (UniProt O00716): the thermal stability z-score in assay [1] (setting [3]) is -0.295; in assay [1] (arsenate co-treatment: none) it was -0.154; in assay [2], -0.342.
The matching figures for GNPAT (UniProt O15228): 0.161, 0.296 and 0.518.
For MAPKAPK2 (UniProt P49137), the thermal stability z-score in assay [1] (setting [3]) stood at 0.451; in assay [1] (arsenate co-treatment: none), 0.459; in assay [2], 0.48.
As to CAMKK1 (UniProt Q8N5S9), the thermal stability z-score is 0.776 in assay [1] (setting [3]), 1.45 in assay [1] (arsenate co-treatment: none) and 4.72 in assay [2].
With MAPK7 (UniProt Q13164), the results for the thermal stability z-score in assay [1] (setting [3]), in assay [1] (arsenate co-treatment: none) and in assay [2] were 0.0307, 0.141 and 0.334, respectively.
